The record followed here is US20090215759A1, “MODULATORS FOR AMYLOID BETA” (priority 2008, published 2009).

Structures are written as SMILES.

`COc1cc(Nc2nccc(N3CCC(O)CC3)n2)ccc1-n1cnc(C)c1`: the melting point (as a rule, the temperature, or range, at which the solid turns liquid) fell in the range of 197 to 200 °C.

In turn, `Cc1cn(-c2ccc(Nc3nc(C)cc(Cc4ccccc4)n3)cc2F)cn1` came in with a melting point of 155 to 158 °C. In the case of `Cc1cc(Cc2ccccc2)nc(Nc2ccc(-n3ccnc3CO)cc2)n1`, the melting point is 95 to 98 °C.

`Cc1cc(Cc2ccccc2)nc(Nc2ccc(-n3cnc(C)n3)c(F)c2)n1` had a melting point of 183 to 185 °C. For `COc1cc(Nc2nc(-c3ccc(Cl)cc3)cc(C(F)(F)F)n2)ccc1-n1cnc(C)c1`, the melting point is 202 to 204 °C. Molecule `COc1cc(Nc2nc(-c3ccc(-n4ccnc4)cc3)cc(C(F)(F)F)n2)ccc1-n1cnc(C)c1` returned a melting point of 248 to 250 °C. Take `COc1cc(Nc2nc(-c3ccc(-n4cccn4)cc3)cc(C(F)(F)F)n2)ccc1-n1cnc(C)c1`: the melting point lay within 252 to 254 °C. As for `CCOC(=O)c1cnc(Nc2ccc(-n3cnc(C)c3)c(OC)c2)nc1-c1cccc(C#N)c1`, the melting point was in the range of 195 to 197 °C.

As for `CCOC(=O)C(c1ccccc1)c1nc(Nc2ccc(-n3cnc(C)c3)c(OC)c2)ncc1-c1ccccc1` (centres unmarked), the melting point was 84 to 86 °C.

Regarding `CCOC(=O)c1cnc(Nc2ccc(-n3cnc(C)c3)c(F)c2)nc1-c1ccc(Cl)cc1`, the melting point fell in the range of 232 to 234 °C. `COc1cc(Nc2nccc(-c3ccc(Cl)cc3)n2)ccc1-n1cnc(C)c1` displayed a melting point of 202 to 204 °C. For the molecule `COc1cc(Nc2nccc(-c3cccnc3)n2)ccc1-n1cnc(C)c1`, the melting point is 204 to 206 °C. For `Cc1cn(-c2ccc(Nc3nc(-c4ccc(Cl)cc4)cc(C(F)(F)F)n3)cc2F)cn1` the value was 248 to 250 °C; for `CCOC(=O)c1cnc(Nc2ccc(-n3cnc(C)c3)c(F)c2)nc1-c1ccc(C(F)(F)F)cc1`, 219 to 221 °C. For `Cc1cn(-c2ccc(Nc3nccc(-c4ccc(C(F)(F)F)cc4)n3)cc2F)cn1` the value was 196 to 197 °C; for `CCOC(=O)c1cnc(Nc2ccc(-n3cnc(C)c3)c(OC)c2)nc1-c1ccc(Cl)cc1` [Example 28, Ethyl 4-(4-chloro-phenyl)-2-[3-methoxy-4-(4-methyl-imidazol-1-yl)-phenylamino]-pyrimidine-5-carboxylate], 216 to 218 °C.

Regarding `COc1cc(Nc2nc(C)cc(Cc3ccccc3)n2)ccc1-c1cnc(C)s1` [Example 209, (4-Benzyl-6-methyl-pyrimidin-2-yl)-[3-methoxy-4-(2-methyl-thiazol-5-yl)-phenyl]-amine], the melting point was in the range of 138 to 141 °C.
